Literature values in patent US8945508B2, “Dendrimer compositions and methods of synthesis” (priority 2009, dated 2015).

Assays:
[1] = more cytotoxic than IRINOTECAN

CC[C@@]1(O)C(=O)OCc2c1cc1n(c2=O)Cc2cc3cc(O)ccc3nc2-1 [SN-38, 10-hydroxycamptothecin]
cytotoxicity relative to IRINOTECAN [1]: 1000 fold

N.N.[Cl][Pt][Cl] [cisplatin]
in vivo activity in solid tumor models (solid tumors): no effect
